Values quoted from earlier work, collected in US20080161385A1, “Composition Inhibiting Sex Hormone-Binding Globulin” (FUJI OIL COMPANY, LIMITED, priority 2004, published 2008).

System: SHBG
Conditions: cell test, literature

## O=c1c(-c2ccc(O)cc2)coc2cc(O)cc(O)c12 [genistein]
  Production of SHBG: stimulates production of SHBG
